Experimental data reported in US5663346A, “Substituted azaindolylidene compounds and process for their preparation” (Pharmacia S.p.A., priority 1994, dated 1997).

Key:
[1] = target: p45 v-abl tyrosine kinase; experiment: p45 v-abl Kinase Assay ((Val5)-Angiotensin II phosphorylation); assay type: biochemical, Abelson murine leukemia virus; settings: in-vitro; (Val5)-Angiotensin II 2 mM, ATP 50 mM, 40 ng abl-kinase, pH 8.0; read-out: Inhibition of p-45 v-abl kinase, IC50
Protocol: p45 v-abl Kinase Purification
The enzyme used in our test was the p45 v-abl tyrosine kinase which represents the catalytic domain of the Abelson tyrosine kinase (isolated from the Abelson murine leukemia virus). The p45 v-abl kinase was produced and isolated as described by Wang et al. in J. Biol. chem 260, 64 (1985) and by Ferguson et al. in J. Biol. Chem 260, 3652 (1985) and in Biochem J. 257, 321 (1989).
(Val^5 )-Angiotensin II phosphorylation was performed by incubation with 40 ng of purified abl-kinase and (g-^32 p)-ATP, in […] of buffer containing Tris-HCl 25 mM, Ph 8.0, MgCl2 10 Mm and dithiothreitol 0.1 Mm (kinase buffer). The reaction mixture was incubated for the indicated time at […] and the reaction stopped by adding […] of 5% trichloroacetic acid. After a brief incubation on ice, tubes were centrifuged. The supernatants were spotted on phosphocellulose paper squares (Whatman P-81) and washed extensively in acetic acid. The radioactivity bound to dried phosphocellulose squares was measured in a liquid scintillation counter. IC50 values were. calculated from triplicated determinations of each experimental point. Each inhibitor was tested at concentrations ranging from […] in the presence of fixed concentrations of peptide (2 mM) and ATP (50 mM).

K562 cells = experiment: K562 cell Growth Inhibition Assay; assay type: cell-based; settings: Homo sapiens, 66 h incubation, [3H]-Thymidine incorporation, with or without 10% foetal calf serum
Protocol: In-vivo Assay K562 cell Growth Inhibition Assay 1 ml of K562 cells, grown in suspension, were incubated for 66 h with or without 10% foetal calf serum in the presence of 1 mCi of [^3 H]-Thymidine. Cells were harvested, washed three times in cold PBS and treated with 5% trichloroacetic acid for 5 min. on ice. […] The extract was counted in a liquid scintillation counter. The inhibitory activity data for a representative compound according to the present invention, obtained both in the in-vitro p45 v-abl kinase assay and in the in-vivo human chronic myeloid leukemia K562 cell growth inhibition assay described above, are set out in Table 1.

`Nc1ccc2c(c1)C(=Cc1c[nH]c3ncccc13)C(=O)N2` [5-amino-3-[(7-azaindol-3-yl)methylen]-2-oxindole ditrifluoroacetate] showed an IC50 [1] of 90 nM and an IC50 (K562 cells) of 8800 nM.

`N#Cc1ccc2c(c1)C(=Cc1c[nH]c3ncccc13)C(=O)N2` [5-cyano-3-[(7-azaindol-3-yl)methylen]-2-oxindole] showed an IC50 [1] of 980 nM and an IC50 (K562 cells) of 2520 nM.
